# Measured values reported in patent EP0637237B1, “CALCIUM RECEPTOR-ACTIVE MOLECULES” (BRIGHAM AND WOMEN'S HOSPITAL, INC., priority 1993, dated 1994).
# Read-outs that look alike come from different tables or passages of the source.
# Tests used:
# [1] = Serum or whole blood ionized Ca2+ and PTH in rats in vivo; design: species or system Sprague-Dawley rats
# Description: Male Sprague-Dawley rates (200 g) were maintained on a low calcium diet for one week prior to receiving test substance or vehicle as control. Blood was collected from the tail vein three hours after the intra-peritoneal administration of NPS 467. […]
# [2] = molecular target: T1, parathyroid cell Ca^2+ receptor (Bos taurus, UniProt P35384); format: cell-based, bovine; settings: for effect on [Ca2+]i: tested at concentrations of 100 to 300 µM
# T1 sequence (P35384 20-1085): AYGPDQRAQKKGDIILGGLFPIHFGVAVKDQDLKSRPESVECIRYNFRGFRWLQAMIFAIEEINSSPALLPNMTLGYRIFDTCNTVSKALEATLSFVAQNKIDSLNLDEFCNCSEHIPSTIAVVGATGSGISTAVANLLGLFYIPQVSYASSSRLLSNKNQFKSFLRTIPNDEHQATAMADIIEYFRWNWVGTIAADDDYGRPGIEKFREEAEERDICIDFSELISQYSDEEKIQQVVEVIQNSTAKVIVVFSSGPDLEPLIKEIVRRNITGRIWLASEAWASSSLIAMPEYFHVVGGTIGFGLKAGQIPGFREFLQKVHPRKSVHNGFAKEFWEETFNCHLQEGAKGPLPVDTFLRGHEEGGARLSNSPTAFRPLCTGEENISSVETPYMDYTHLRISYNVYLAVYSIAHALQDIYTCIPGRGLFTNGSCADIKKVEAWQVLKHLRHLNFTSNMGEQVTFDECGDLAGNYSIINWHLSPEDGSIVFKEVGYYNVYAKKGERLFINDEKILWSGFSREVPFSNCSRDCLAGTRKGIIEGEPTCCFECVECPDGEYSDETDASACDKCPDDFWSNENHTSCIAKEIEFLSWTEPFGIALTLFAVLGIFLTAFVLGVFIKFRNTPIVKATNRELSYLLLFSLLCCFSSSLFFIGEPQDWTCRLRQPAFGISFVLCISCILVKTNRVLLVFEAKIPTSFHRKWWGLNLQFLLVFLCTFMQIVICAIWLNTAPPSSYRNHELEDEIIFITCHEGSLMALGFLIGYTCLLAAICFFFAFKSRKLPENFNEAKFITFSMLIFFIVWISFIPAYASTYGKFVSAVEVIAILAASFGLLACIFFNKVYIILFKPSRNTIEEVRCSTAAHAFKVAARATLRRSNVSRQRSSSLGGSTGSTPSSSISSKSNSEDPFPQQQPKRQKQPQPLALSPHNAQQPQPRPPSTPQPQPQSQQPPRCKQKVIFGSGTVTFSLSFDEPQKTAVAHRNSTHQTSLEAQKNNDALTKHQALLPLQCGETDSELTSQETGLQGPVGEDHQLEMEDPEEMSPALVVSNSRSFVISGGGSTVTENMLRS
# [3] = Net positive charge of the molecule; format: physicochemical; settings: Table 1; effective charge at physiological pH
# [4] = system: osteoclast Ca^2+ receptor; experiment: [Ca2+]i (indo-1) in single rat osteoclasts; format: cell-based; settings: for increase in [Ca2+]i in osteoclasts: screening, small responses were detected
# [5] = read-out: EC50 for the mobilization of intracellular Ca2+, […]
# [6] = Table 6, rat osteoclasts, indo-1, inactive = no increase in cytosolic Ca2+ at 1-5 mM
# [7] = Table 1, mobilization of intracellular Ca2+ in parathyroid cells, read-out: EC50
molecule,measurement,setting,value
COc1cccc(C(C)NCCCc2ccccc2)c1 (racemic) [NPS 467],time course of the hypocalcemic effect,[1]; Fig. 40 (25 mg/kg),maximal within three hours and returned toward control levels after 24 hours
same,serum albumin or phosphate levels,[1]; any of the doses examined,no change in serum albumin or phosphate levels
same,serum or whole blood Ca2+,"[1]; low calcium diet, three hours after intra-peritoneal administration, Fig. 38",dose-dependent reduction in serum or whole blood Ca^2+
same,serum ionized calcium after oral administration,"[1]; oral, dose-response curve, Fig. 44",lowers serum ionized calcium in rats when administered orally
same,circulating levels of PTH,"[1]; preliminary studies, doses effective in lowering blood Ca2+, Fig. 39",dose-dependent reduction in circulating levels of PTH
same,EC50,[2]; [5],< 5 µM
COc1cccc(C(C)NCCCc2ccccc2Cl)c1 (racemic) [NPS 568],EC50,[2]; [5],< 5 µM
"NCCCCCCCCCCCCN [1,12-diaminododecane (DADD), 1,12-diaminododecane]",Net (+) Charge,[3],+2
same,EC50,[2]; read-out: EC50,3000 µM
NC(=O)C[C@H](NC(=O)Cc1c[nH]c2cccc(O)c12)C(=O)NCCCCCNCCCNCCCNC(=O)[C@@H](N)CCCN=C(N)N [Argiotoxin 659],Net (+) Charge,[3],+4
same,effect on [Ca2+]i,[2],evoked transient increases in [Ca^2+]i
NCCCNCCCCNCCCNCCCN(O)CCCNC(=O)Cc1c[nH]c2ccccc12 [NPS 017],EC50(µM) OSTEOCLAST,[4]; [6],inactive
NCCCNCCCCNCCCNCCCNCCCNC(=O)Cc1c[nH]c2ccccc12 [NPS 019],EC50,[4]; [6],> 300 µM
"NCCCN(CCCN)CCCN(CCCN)CCCCN(CCCN)CCCN(CCCN)CCCN [NPS 381, N^1,N^1,N^5,N^10,N^14,N^14-hexakis-(3-aminopropyl) spermine]",Net (+) Charge,[3],+10
NCCCN1CCCN(CCCN)CCN(CCCN)CCCN(CCCN)CC1 [NPS 383],Net (+) Charge,[3],+8
NC(=O)C[C@H](NC(=O)Cc1ccc(O)cc1O)C(=O)NCCCCCNCCCNCCCNC(=O)[C@@H](N)CCCN=C(N)N [argiotoxin 636],effect on [Ca2+]i,[2],without effect
NC[C@H]1O[C@H](O[C@H]2[C@H](O)[C@@H](O[C@H]3O[C@H](CO)[C@@H](O)[C@H](N)[C@H]3O)[C@H](N)C[C@@H]2N)[C@H](N)[C@@H](O)[C@@H]1O [bekanamycin],Net (+) Charge,[3],+5
same,EC50,[2]; [7],200 µM
same,EC50,[2]; […],200 µM
CCC[C@@H]1C[C@@H](C(=O)N[C@@H]([C@H]2O[C@H](SC)[C@H](O)[C@@H](O)[C@H]2O)[C@@H](C)O)N(C)C1 [lincomycin],effect on cytosolic Ca2+ transients,[2]; tested at a concentration of 500 µM,without effect
NCCCCNCCCN [spermidine],Net (+) Charge,[3],+3
same,EC50,[2],2000 µM
same,"increase in [Ca2+]i, % of that evoked by a maximal concentration of extracellular Ca2+",[4]; concentration of 1 mM,about 10%
same,increase in [Ca2+]i in osteoclasts,[4],none of these caused any large increase in [Ca^2+]i
[H]/N=C(/N)N[C@H]1[C@H](O)[C@@H](O)[C@H](O[C@@H]2O[C@@H](C)[C@](O)(C=O)[C@H]2O[C@@H]2O[C@@H](CO)[C@H](O)[C@@H](O)[C@@H]2NC)[C@@H](N/C(N)=N\[H])[C@@H]1O [streptomycin],Net (+) Charge,[3],+3
same,EC50,[2]; [7],600 µM
same,EC50,[2]; […],600 µM
NCCNCCNCCNCCN [tetraethylenepentamine],Net (+) Charge,[3],+5
NCCNCCNCCN [triethylenetetramine],Net (+) Charge,[3],+4
COc1ccc(CCN(C)CCCC(C#N)(c2ccc(OC)c(OC)c2)C(C)C)cc1OC (centres unmarked) [verapamil],increase in [Ca2+]i in osteoclasts,[4],none of these caused any large increase in [Ca^2+]i
same,increase in [Ca2+]i,[4]; verapamil 100 µM,no detectable increase in [Ca^2+]i
gentamicin,Net (+) Charge,[3],+5
